Measured values: patent publication US7923465B2, “Cannabinoid receptor ligands, pharmaceutical compositions containing them, and process for their preparation” (priority 2005, dated 2011)
Read-outs that look alike come from different tables or passages of the source.

Assays:
[1] = target: hCB1 (Homo sapiens, UniProt P21554); assay: Agonism of CB1 receptors expressed in CHO cells, forskolin cAMP assay (Protocol IX.2); format: cell-based; set-up: expressed in transfected cells; host or cells: CHO (h-CB1/CHO, G418-selected); details: for activation at 10 µM: CHO
Chain of hCB1 (P21554 whole entry): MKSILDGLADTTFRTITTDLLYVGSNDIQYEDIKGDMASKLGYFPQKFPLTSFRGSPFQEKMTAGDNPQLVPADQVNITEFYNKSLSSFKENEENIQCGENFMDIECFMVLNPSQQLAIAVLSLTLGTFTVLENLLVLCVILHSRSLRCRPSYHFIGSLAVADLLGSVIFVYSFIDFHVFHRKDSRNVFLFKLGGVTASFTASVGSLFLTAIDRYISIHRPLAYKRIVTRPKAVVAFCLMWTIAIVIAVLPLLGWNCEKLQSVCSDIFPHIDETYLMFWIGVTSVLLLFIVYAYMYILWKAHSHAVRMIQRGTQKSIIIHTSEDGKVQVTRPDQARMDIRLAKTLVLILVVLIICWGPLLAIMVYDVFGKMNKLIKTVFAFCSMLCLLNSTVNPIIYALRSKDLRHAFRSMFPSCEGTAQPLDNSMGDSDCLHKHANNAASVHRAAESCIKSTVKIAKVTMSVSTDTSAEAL
Procedure, shortened: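 CHO cells stably expressing hCB1 stimulated with forskolin in Krebs buffer with 0.1% FAF BSA and 1 mM IBMX. Lysed cells' cAMP measured by chemiluminescence; EC50 from nonlinear regression of dose-response curves.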

[2] = target: T1, CB1 (Rattus norvegicus, UniProt P20272); assay: Rat CB1 receptor binding using brain membrane, [3H]SR141716A displacement (Protocol I); set-up: CB1 receptor present in a rat brain membrane preparation; from tissue; host or cells: rat brain membrane; inhibition: dose or concentration left out as unconfirmed; details: for inhibition: 1 h
T1 sequence (P20272 whole entry): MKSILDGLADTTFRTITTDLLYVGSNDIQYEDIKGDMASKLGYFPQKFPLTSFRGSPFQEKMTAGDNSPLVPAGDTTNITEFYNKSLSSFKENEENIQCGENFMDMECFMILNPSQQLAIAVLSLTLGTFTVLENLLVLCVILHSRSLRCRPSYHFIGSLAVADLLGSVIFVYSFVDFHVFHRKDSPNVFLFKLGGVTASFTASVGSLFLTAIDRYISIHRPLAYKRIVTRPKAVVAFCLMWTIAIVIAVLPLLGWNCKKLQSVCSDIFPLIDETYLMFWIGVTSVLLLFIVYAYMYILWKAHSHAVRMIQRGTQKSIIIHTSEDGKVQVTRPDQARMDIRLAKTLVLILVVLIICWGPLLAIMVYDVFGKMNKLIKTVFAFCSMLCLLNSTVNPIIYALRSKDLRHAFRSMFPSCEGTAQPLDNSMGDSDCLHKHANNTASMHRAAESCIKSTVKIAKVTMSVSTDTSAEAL

[3] = target: T1, CB1; assay: GTPγS binding assay, CB1 functional assay in rat cerebellar membrane (Protocol VIII); format: biochemical; set-up: 10 μg rat cerebellum membrane; from tissue; host or cells: rat cerebellum membrane, prepared in-house; details: for activation at 1 µM: 1 h, read-out: Per Se % Stimulation; for inhibition at 1 µM: read-out: % Inhibition of WIN-55212-2 induced stimulation
Procedure, shortened: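 Rat cerebellar membranes (10 μg) incubated 1 h at 30 °C with 0.2 nM [35S]GTPγS, 50 μM GDP, and compound at 1 μM or 300 nM, alone or with 1 μM WIN 55,212-2, in Tris/MgCl2/EGTA/NaCl pH 7.4. Filter-bound radioactivity counted; percent stimulation calculated against basal specific binding (nonspecific defined by 10 μM GTPγS).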

[4] = at 10 uM, h-CB1/CHO cells, cAMP
[5] = rat brain membrane, [3H]SR141716A displacement, read-out: % Displacement Protocol I
[6] = GTPγS binding over basal, rat cerebellar membrane, tested at 1 uM
[7] = GTPγS binding, tested at 1 uM in presence of 1 μM WIN 55,212-2
[8] = bare number, no unit or concentration given

Compound O=C(NNc1ccccc1Br)c1nn(-c2ccc(Cl)cc2Cl)c2c1C1CCC2C1 (stereo not drawn) [Example 263, N(3)-[(2-Bromophenyl)amino]-1-(2,4-dichlorophenyl)-4,5,6,7-tetrahydro-1H-4,7-methano-indazole-3-carboxamide] has an activation at 10 µM [1, 4] of 16.2%, an inhibition [2, 5] of 69.1% and a melting point of 159 °C.
In the case of O=C(NCc1ccccc1Cl)c1nn(-c2ccc(Cl)cc2)c2c1C1CCC2C1 (stereo not drawn) [Example 221, N(3)-(2-Chlorobenzyl)-1-(4-chlorophenyl)-4,5,6,7-tetrahydro-1H-4,7-methano-indazole-3-carboxamide], the activation at 10 µM [1, 4] was 0%, the activation at 1 µM [3, 6] was -16.7% and the inhibition at 1 µM [3, 7] was 95.7%. It also gave an inhibition ([2]; read-out: % Displacement Protocol I, rat brain membrane, [3H]SR141716A displacement) of 68.6% and a melting point of 119 to 122 °C.
Compound O=C(NC1CCCCC1)c1nn(-c2ccc(Br)cc2)c2c1C1CCC2C1 (stereo not drawn) [Example 275, N(3)-Cyclohexyl-1-(4-bromophenyl)-4,5,6,7-tetrahydro-1H-4,7-methano-indazole-3-carboxamide] has an activation at 10 µM [1, 4] of 16.4%, an inhibition [2, 5] of 38.8% and a melting point of 164 °C.
Compound CN(NC(=O)c1nn(-c2ccc(Cl)cc2)c2c1C1CCC2C1)C1CCCCC1 (stereo not drawn) [Example 213, N(3)-[(N-Cyclohexyl-N-methyl)amino]-1-(4-chlorophenyl)-4,5,6,7-tetrahydro-1H-4,7-methano-indazole-3-carboxamide] has an activation at 10 µM [1, 4] of 0%, an inhibition [2, 5] of 48.5% and a melting point of 62 °C.
Work on O=C(NCc1ccc(Cl)cc1Cl)c1nn(-c2ccc(Cl)cc2Cl)c2c1C1CCC2C1 (stereo not drawn) [Example 251, N(3)-(2,4-Dichlorobenzyl)-1-(2,4-dichlorophenyl)-4,5,6,7-tetrahydro-1H-4,7-methano-indazole-3-carboxamide] yielded an activation at 10 µM [1, 4] of 37%, an inhibition [2, 5] of 42.3% and a melting point of 57 to 59 °C.
For O=C(NN1CCCCC1)c1nn(-c2ccc(Cl)cc2)c2c1C1CC3CC(C1)CC2C3 [Example 140, N(7)-Piperidino-5-(4′-chlorophenyl)-5,6-diazatetracyclo[7.3.1.1^3,11.0^4,8]tetradeca-4(8)-6-diene-7-carboxamide], the “hCB1 Agonism” value [1, 4] was 48.88% at, the “Per Se % Stimulation” value [3, 6] was 24.9% and the “% Inhibition of WIN-55212-2 induced stimulation” value [3, 7] was 71.9%. For the same compound, the “% Displacement Protocol I” value ([2]; rat brain membrane, [3H]SR141716A displacement) was 50.4%.
In the case of O=C(NNc1ccccc1Cl)c1nn(-c2ccc(Cl)cc2Cl)c2c1C1CCC2C1 (stereo not drawn) [Example 257, N(3)-[(2-Chlorophenyl)amino]-1-(2,4-dichlorophenyl)-4,5,6,7-tetrahydro-1H-4,7-methano-indazole-3-carboxamide], the “hCB1 Agonism” value [1, 8] was 0, the activation at 1 µM [3, 6] was -5.1% and the inhibition at 1 µM [3, 7] was 48.3%. For the same compound, the inhibition [2, 5] was 73.5% and the melting point was 180 to 183 °C.
In the case of O=C(NNc1ccc(Cl)cc1Cl)c1nn(-c2ccc(Cl)cc2Cl)c2c1C1CCC2C1 (stereo not drawn) [Example 260, N(3)-[(2,4-Dichlorophenyl)amino]-1-(2,4-dichlorophenyl)-4,5,6,7-tetrahydro-1H-4,7-methano-indazole-3-carboxamide], the “hCB1 Agonism” value [1, 8] was 0, the activation at 1 µM [3, 6] was 38% and the inhibition at 1 µM [3, 7] was 78.8%. It also gave an inhibition [2, 5] of 84.4%.
